Here are results for 26 molecules from patent US5391552A, “Diphenylpiperazine derivative and drug for circulatory organ containing the same” (Pola Chemical Industries, Inc., priority 1990, dated 1995).

Molecules are shown by their SMILES. pIC50: −log10 of the molar value.

The test system of one test is calcium. Briefly: Antagonism against calcium: inhibition of KCl-induced contraction of rat aorta ring specimens (Magnus tube, Test Example 1). Also noted: species or system Male Wistar rats. As to conditions: inhibits 50% of the maximum contraction by KCl (10-60 mM); rat aorta rings, 37 °C; read-out: 50% inhibitory concentration. As to the method: Male Wistar rats (300-350g) were exsanguinated to death and submitted to thoracotomy to take off aortae. Ring specimens having a width of 3 to 4 mm were prepared from the aortae. The specimen was suspended in a Magnus tube which was filled with Krebs Henseleit liquid of 37°±0.5° C., aerated with a mixing gas (95% of O2 and 5% of CO2) flowing in the liquid. A load of approximately 2 g was given to the specimen, and a tension variation was isometrically recorded.

Another test deals with vertebral artery. Put plainly: Variation of vertebral artery blood flow amount in anesthetized dogs (Test Example 2). Type of test: in vivo, crossbred adult dogs. The following applies: i.v. As to the method: After female and male crossbred adult dogs were put under anesthesia by using pentobarbital-Na, a cannula for blood pressure measuring and a cannula for drug dosing were set to the femoral artery and the femoral vein, respectively. The blood flow was measured using a probe fixed to the vertebral artery.

As to `O[C@H](CSc1ccccc1)CN1CCN(CCCC(c2ccc(F)cc2)c2ccc(F)cc2)CC1` [Compound 16, (S)-(-)-1-[4,4-Bis(4-fluorophenyl)butyl]-4-(2-hydroxy-3-phenylthiopropyl)piperazine], the pIC50 in the test with calcium was 7.00.
For the molecule `Fc1ccc(C(c2ccc(F)cc2)N2CCN(C/C=C/c3ccccc3)CC2)cc1` [Furnarizine, furnarizine, reference compound], the “Variation of the blood flow amount” value amounted to 8% with vertebral artery (30 μg/kg), 27% in the test with vertebral artery (100 μg/kg), 44% with vertebral artery (300 μg/kg) and 55% in the test with vertebral artery (1000 μg/kg).
In the case of `COc1ccccc1CCNCC(O)CN1CCN(C(c2ccccc2)c2ccccc2)CC1` (stereo not drawn) [Compound 4, 1-Diphenylmethyl-4-[2-hydroxy-3-{2-(2-methoxyphenyl)ethylamino}propyl]piperazine], in the test with calcium, the pIC50 was 5.89.
The same measure, in the same setting: in the case of `OC(CSc1cccc2ccccc12)CN1CCN(CCCC(c2ccc(F)cc2)c2ccc(F)cc2)CC1` (stereo not drawn) [Compound 57, 1-[4,4-Bis(4-fluorophenyl)butyl]-4-[2-hydroxy-3-(1-naphthylthio)propyl]piperazine] it was 6.47.
Turning to `COc1ccccc1SCC(O)CN1CCN(CCCC(c2ccc(F)cc2)c2ccc(F)cc2)CC1` (stereo not drawn) [Compound 35, 1-[4,4-Bis(4-fluorophenyl)butyl]-4-[2-hydroxy-3-(2-methoxyphenylthio)propyl]piperazine], in the test on calcium, the pIC50 is 6.80. The “Variation of the blood flow amount” value is 13% with vertebral artery (10 μg/kg), 26% with vertebral artery (30 μg/kg), 66% with vertebral artery (100 μg/kg) and 87% in the test on vertebral artery (300 μg/kg).
In the case of `Oc1ccc(SCC(O)CN2CCN(CCCC(c3ccc(F)cc3)c3ccc(F)cc3)CC2)cc1` (stereo not drawn) [Compound 39, 1-[4,4-Bis(4-fluorophenyl)butyl]-4-[2-hydroxy-3-(4-hydroxyphenylthio)propyl]piperazine], the pIC50 in the test on calcium was 6.47.
On the same count and under the same terms, in the case of `OC(CSc1ccc(Cl)cc1)CN1CCN(CCCC(c2ccc(F)cc2)c2ccc(F)cc2)CC1` (stereo not drawn) [Compound 31, 1-[4,4-Bis(4-fluorophenyl)butyl]-4-[3-(4-chlorophenylthio)-2-hydroxyproply]piperazine] it was 5.96; in that of `COC(CSc1ccccc1)CN1CCN(CCCC(c2ccc(F)cc2)c2ccc(F)cc2)CC1` (stereo not drawn) [Compound 12, 1-[4,4-Bis(4-fluorophenyl)butyl]-4-(2-methoxy-3-phenylthiopropyl)piperazine.2HCl], 6.70; in that of `OC(CNCCc1ccccc1)CN1CCN(C(c2ccccc2)c2ccccc2)CC1` (stereo not drawn) [Compound 3, 1-Diphenylmethyl-4-[2-hydroxy-3-(2-phenylethylamino)propyl]piperazine], 5.89.
For the molecule `OC(CSc1ccccc1)CN1CCN(C(c2ccc(F)cc2)c2ccc(F)cc2)CC1` (stereo not drawn) [Compound 53, 1-[Bis(4-fluorophenyl)methyl]-4-(2-hydroxy-3-phenylthiopropyl)piperazine], the pIC50 in the test with calcium was 5.92.
`COc1ccc(SCC(O)CN2CCN(CCCC(c3ccc(F)cc3)c3ccc(F)cc3)CC2)cc1` (stereo not drawn) [Compound 41, 1-[4,4-Bis(4-fluorophenyl)butyl]-4-[2-hydroxy-3-(4-methoxyphenylthio)propyl]piperazine]: in the test on calcium, the pIC50 is 6.37. Moreover, the “Variation of the blood flow amount” value with vertebral artery (10 μg/kg) is given as 12%; in the test on vertebral artery (30 μg/kg), 25%; in the test with vertebral artery (100 μg/kg) it was 66%; in the test with vertebral artery (300 μg/kg) it was 87%.
In the case of `OC(CSc1ccccc1)CN1CCN(CCCC(c2ccccc2)c2ccccc2)CC1` (stereo not drawn) [Compound 51, 1-(4,4-Diphenylbutyl)-4-(2-hydroxy-3-phenylthiopropyl)piperazine], the pIC50 in the test with calcium was 6.85.
As for `CC(=O)OC(CSc1ccccc1)CN1CCN(CCCC(c2ccc(F)cc2)c2ccc(F)cc2)CC1` (stereo not drawn) [Compound 14, 1-(2-Acetoxy-3-phenylthiopropyl)-4-[4,4-bis(4-fluorophenyl)butyl]piperazine.2HCl], in the test with calcium, the pIC50 is 6.55.
Take `OC(CSc1ccc(F)cc1)CN1CCN(CCCC(c2ccc(F)cc2)c2ccc(F)cc2)CC1` (stereo not drawn) [Compound 37, 1-[4,4-Bis(4-fluorophenyl)butyl]-4-[3-(4-fluorophenylthio)-2-hydroxypropyl]piperazine]: the pIC50 in the test with calcium is 6.85.
The same measure, in the same setting: in the case of `OC(CSCc1ccccc1)CN1CCN(C(c2ccc(F)cc2)c2ccc(F)cc2)CC1` (stereo not drawn) [Compound 24, 1-[Bis(4-fluorophenyl)methyl]-4-(2-hydroxy-3-phenylmethylthiopropyl)piperazine] it was 5.85; in that of `O[C@@H](CSc1ccccc1)CN1CCN(CCCC(c2ccc(F)cc2)c2ccc(F)cc2)CC1` [Compound 18, (R)-(+)-1-[4,4-Bis(4-fluorophenyl)butyl]-4-(2-hydroxy-3-phenylthiopropyl)piperazine], 6.89.
`OC(CSc1ccccc1)CN1CCN(CCCC(c2ccc(F)cc2)c2ccc(F)cc2)CC1` (stereo not drawn) [Compound 10, 1-[4,4-Bis(4-fluorophenyl)butyl]-4-(2-hydroxy-3-phenylthiopropyl)piperazine.2HCl]: the pIC50 in the test with calcium was 6.80. The “Variation of the blood flow amount” value in the test on vertebral artery (10 μg/kg) is on record as 18%; in the test on vertebral artery (30 μg/kg) it was 14%; with vertebral artery (100 μg/kg), 80%; in the test on vertebral artery (300 μg/kg), 125%.
Consider `COc1cccc(SCC(O)CN2CCN(CCCC(c3ccc(F)cc3)c3ccc(F)cc3)CC2)c1` (stereo not drawn) [Compound 43, 1-[4,4-Bis(4-fluorophenyl)butyl]-4-[2-hydroxy-3-(3-methoxyphenylthio)propyl]piperazine], for which, in the test with calcium, the pIC50 is 6.55. The “Variation of the blood flow amount” value in the test with vertebral artery (10 μg/kg) is recorded as 7%; in the test with vertebral artery (30 μg/kg), 15%; with vertebral artery (100 μg/kg), 55%; in the test with vertebral artery (300 μg/kg) it was 131%.
For `Cc1ccc(SCC(O)CN2CCN(CCCC(c3ccc(F)cc3)c3ccc(F)cc3)CC2)cc1` (stereo not drawn) [Compound 20, 1-[4,4-Bis(4-fluorophenyl)butyl]-4-[2-hydroxy-3-(4methylphenylthio)propyl]piperazine], the pIC50 in the test on calcium was 6.57.
For `OC(CSc1ccccc1)CN1CCN(CC(c2ccccc2)c2ccccc2)CC1` (stereo not drawn) [Compound 47, 1-(2,2-Diphenylethyl)-4-(2-hydroxy-3-phenylthiopropyl)piperazine], the pIC50 in the test with calcium was 6.16.
Same read-out and setting: in the case of `COc1ccc(CCNCC(O)CN2CCN(C(c3ccccc3)c3ccccc3)CC2)cc1OC` (stereo not drawn) [Compound 5, 1-[3-{2-(3,4-Dimethoxyphenyl)ethylamino}-2-hydroxypropyl]-4-diphenylmethylpiperazine] it was 5.92; in that of `Nc1ccc(SCC(O)CN2CCN(CCCC(c3ccc(F)cc3)c3ccc(F)cc3)CC2)cc1` (stereo not drawn) [Compound 22, 1-[(4-Aminophenylthio)-2-hydroxypropyl]-4-[4,4bis(4-fluorophenyl)butyl]piperazine], 6.20; in that of `OC(CNc1ccccc1)CN1CCN(CCCC(c2ccc(F)cc2)c2ccc(F)cc2)CC1` (stereo not drawn) [Compound 6, 1-[4,4-Bis(4-fluorophenyl)butyl]-4-(2-hydroxy-3-phenylaminopropyl)piperazine], 6.66.
Same read-out and setting: in the case of `COc1ccccc1SCC(O)CN1CCN(C(c2ccc(F)cc2)c2ccc(F)cc2)CC1` (stereo not drawn) [Compound 45, 1-[Bis(4-fluorophenyl)methyl]-4-[2-hydroxy-3-(2methoxyphenylthio)propyl]piperazine] it was 5.96.
Turning to `COc1ccc(SCC(O)CN2CCN(C(c3ccc(F)cc3)c3ccc(F)cc3)CC2)cc1` (stereo not drawn) [Compound 55, 1-[Bis (4-fluorophenyl)methyl]-4-[2-hydroxy-3-(4-methoxyphenylthio)propyl]piperazine], the pIC50 in the test with calcium was 5.89.
Still for that read-out and setting: in the case of `OC(CSCc1ccccc1)CN1CCN(CCCC(c2ccc(F)cc2)c2ccc(F)cc2)CC1` (stereo not drawn) [Compound 28, 1-[4,4-Bis(4-fluorophenyl)butyl]-4-(2-hydroxy-3-phenylmethylthiopropyl)piperazine] it was 6.96.
